The values that follow are results of earlier work, collected in patent publication US20030232787A1, “Combinations of an endothelin receptor antagonist and an antiepileptic compound having pain alleviating properties or analgesic” (priority 2002, published 2003).

SMILES strings stand for the structures. Square brackets hold non-standard residues; d marks the D form. Peptide text beside a SMILES is read from it.

The test system of data set [1] is rat model of diabetic neuropathy. To be noted: Jarvis et al. 2000; cited from earlier work.
Data set [2] deals with mouse model of inflammation and hyperalgesia. Conditions: Piovezan et al. 2000; cited from earlier work.
In data set [3] the test system is streptozotocin-induced static allodynia. Conditions: rat; Field et al.; cited from earlier work.

In the case of `CCCCN(CCCC)C(=O)CN1C[C@H](c2ccc3c(c2)OCO3)[C@@H](C(=O)O)[C@@H]1c1ccc(OC)cc1` [ABT-627, 2R-(4-Methoxyphenyl)-4S-(1,3-benzodioxol-5-yl)-1-(N,N-di(n-butyl)aminocarbonyl-methyl)-pyrrolidine-3R-carboxylic acid], the effect on pain entry in data set [1] is listed as “attenuate pain”.
`CC(C)C[C@@H]1NC(=O)[C@@H](C(C)C)NC(=O)[C@@H]2CCCN2C(=O)[C@@H](CC(=O)O)NC(=O)[C@@H](Cc2c[nH]c3ccccc23)NC1=O` [BQ-123] (cyclo(L[dW][dD]P[dV])): the effect on pain entry in data set [2] is recorded as “alleviate pain”.
With `CC(NC(=O)C(C)(Cc1c[nH]c2ccccc12)NC(=O)OCc1cc2ccccc2o1)c1ccccc1` (stereo not drawn) [[2-(1H-indol-3-yl)-1-methyl-1-(1-phenyl-ethylcarbamoyl)-ethyl]-carbamic acid benzofuran-2-ylmethyl ester], in data set [3], the “effect on maintenance of streptozotocin-induced static allodynia” value is listed as “block the maintenance of streptozotocin-induced static allodynia”.
